Results as given in patent US20120088827A1 (Profectus Biosciences, Inc., priority 2009, published 2012).
pEC50, pIC50: −log10 of the molar value. Like-named read-outs stand apart in the source and are kept apart here.

Tests used:
NF-κB p65 = molecular target: T1, NF-κB p65 (Homo sapiens, UniProt Q04206); test: TransAM NF-κB Family DNA Binding ELISA, p65
T1 construct: purchased Active Motif
Description: The binding activity of NF-κB heterodimer or homodimer subunits from activated nuclear extracts or purified recombinant NF-κB proteins exposed to the drug compounds was evaluated using the TransAM NF-κB Family binding ELISA (Active Motif). Approximately 3-5 μg of nuclear extracts from TNFα activated Hela or Raji cells (Active Motif) or 20 ng of purified recombinant proteins (p65 and p50 from Active Motif, p52 from Santa Cruz) were incubated for 1 hour at room temperature with 20 μL drug compounds diluted in Complete Lysis buffer without DTT. Treated samples were then transferred to 30 μL Complete Binding Buffer (with DTT) in microplate wells pre-coated with the NF-κB consensus oligonucleotide. […] The plate was incubated for 1 hour at room temperature with gentle shaking and then washed 3 times with 200 μL 1× Wash Buffer. NF-κB p65, p50, p52, RelB, or c-Rel subunits bound to the plate were detected with 100 μL of the primary antibody (diluted 1:1000 in 1× Antibody Buffer) specific for that subunit. The plate was incubated for 1 hour at room temperature and then washed 3 times with 200 μL 1× Wash Buffer. Next, 100 μL of a HRP conjugated goat anti-rabbit antibody (diluted 1:1,000 in 1× Antibody Buffer) was added to each well. The plate was incubated for 1 hour at room temperature and then washed 4 times with 200 μL 1× Wash Buffer. 100 μL of room temperature Developing Solution was added to each well. The reaction was allowed to develop for 2-10 minutes until a medium dark blue color developed (depending on the subunit activity in the lot of extract or lot of recombinant protein used) and then the reaction was stopped with 100 μL Stop Solution yielding a yellow color. Absorbance was recorded using a Becton-Dickinson DTX 880 Multimode Detector at 450 nm with a reference wavelength subtracted at 620 nm.

IL-6 = test: Inhibition of IL-6 release in LPS-stimulated RAW 264.7 cells; type: cell-based; conditions: Mus musculus, RAW264.7; pretreated 2 hours, 1 μg/mL LPS 20-24 hours
Description: RAW 264.7 cells were seeded at 4×10^4 cells per well in complete growth medium in 96 well white TC plates with clear bottoms one day prior to the assay. The next day the cells were washed once and 100 μL fresh growth media was added. Cells were pretreated with 0.5 μL from a 6 point 200× dilution series of the test compounds in DMSO for 2 hours. Following pretreatment with the drugs, the inflammatory response was induced by adding 5 μL of a 20 μg/mL solution of LPS (Sigma). The cells were incubated in the presence of the drugs and 1 μg/mL LPS for another 20-24 hours. Typically after treatment the total DMSO was […] of the culture volume and the final concentrations of the compounds were approximately: 40, 20, 10, 1, 0.2 and 0 μM depending on the MW of each compound. Modified dilution series were prepared as needed to get adequate dose response curves without changing the % DMSO. Samples were run in duplicate or triplicate and included DMSO treated control wells with and without LPS stimulation. Drugs with a known activity such as Parthenolide or DHMEQ were run as experimental controls. After 20-24 hours LPS activation, the media supernatant was collected from the cells and replaced with fresh media. The supernatant samples were cleared by centrifugation at 1,000×g for 5 minutes, transferred to fresh storage plates, and stored frozen at −30° C.
After determining the appropriate supernatant dilutions experimentally, mIL-6 levels in the supernatants were quantified using Quantikine™ mouse IL-6 Immunoassay (R&D Systems) according to the manufacturer's protocol. Approximately 50 μL of the supernatants diluted in Calibrator Diluent were added to 50 μL of Assay Diluent in microplate wells pre-coated with an anti-mouse IL-6 capture antibody. Controls included a calibrated positive IL-6 control sample, non-specific binding (NSB) wells containing Calibrator Diluent but no IL-6, and a recombinant mouse IL-6 standard dilution series (10-1000 pg/mL). The plates were incubated at room temperature for 2 hours with shaking and then washed 5 times with 400 μL 1× Wash Buffer. Approximately 100 μL of an HRP-conjugated anti-mouse IL-6 antibody was added to each well to detect IL-6 captured on the plate. The plates were incubated at room temperature for 2 hours and then washed 5 times with 400 μl 1× Wash Buffer. Equal volumes of Color Reagents A and B were mixed and 100 μL of this HRP Substrate Solution was added to each well on the plate. The blue color was allowed to develop for 30 minutes and then the reaction was stopped using 100 μL of Stop Solution yielding a yellow color. Absorbance at 450 nm with a reference wavelength subtracted at 595 nm was recorded using a Becton-Dickinson DTX 880 Multimode Detector.
The concentration of mIL-6 in the unknown samples was determined from a curve-fit of the mIL-6 standard absorbance data and multiplying by the dilution factor. The maximum activity achieved in the absence of the inhibitor (DMSO+LPS treated wells) was arbitrarily given a value of 100%; likewise the minimum activity in the absence of the stimulant (no LPS) was assigned a value of 0% Inhibition of the amount of mIL-6 cytokine released in the drug treated wells was calculated relative to the maximum activation in the DMSO+LPS treated control wells (i.e., % inhibition=100−(drug+LPS treated)/(DMSO+LPS treated)). Dose response curves were used to determine the effective concentration to inhibit 50% of the mIL-6 cytokine released (IC50) by means of a SigmaPlot macro which fits a sigmoidal dose-response curve to the (log 10) μM concentration versus % inhibition. […] This technique yields an objective value for the IC50 provided that 50% inhibition was approached at the concentrations tested.

[1] = system: NF-κB driven transcription (pNF-κB-luc reporter, 293 cells); test: 293/NF-kB-luc reporter cell assay; type: cell-based; conditions: Homo sapiens; compound 2 hours, then 20 ng/ml TNF-α for 18 hours; luminescence
Description: (§1) Two reporter cell assays were used to determine the ability of the compounds of Examples 1-12 to inhibit NF-κB driven transcription. The first assay was a 293-cell based assay with a stably integrated pNF-κB-luc reporter plasmid containing 3 NF-κB promoter elements. The second assay was a 293-cell based assay with a stably integrated pTRH1-NF-κB-dscGFP reporter containing 4 NF-κB promoter elements. Cells were treated with 0, 0.2, 1, 10, 20 and 40 μM of the compounds of Example 1-12 for 2 hours then were induced with 20 ng/ml TNF-α for 18 hours. Following the induction, luminescence or fluorescence was quantified using a Beckman-Coulter 2300 plate reader. […] As a control, 0.5% DMSO treated and untreated cells were compared to verify that the compounds of Examples 1-12 had no effect on the expression of luciferase or in the readout of the assay. There was a slight decrease in the output from the assay in the DMSO treated population although it was not statistically significant. As a result of the controls, the decrease in activity in the drug treated samples was compared to the DMSO control sample.

[2] = system: NF-κB driven transcription (pTRH1-NF-κB-dscGFP reporter, 293 cells); test: NF-kB/293/GFP reporter cell assay; type: cell-based; conditions: Homo sapiens, HEK293; compound 2 hours, then 20 ng/ml TNF-α for 18 hours; fluorescence
Description: as §1

[3] = binding to NF-κB consensus oligonucleotide, read-out: p65 binding IC50

T1 sequence (Q04206 whole entry): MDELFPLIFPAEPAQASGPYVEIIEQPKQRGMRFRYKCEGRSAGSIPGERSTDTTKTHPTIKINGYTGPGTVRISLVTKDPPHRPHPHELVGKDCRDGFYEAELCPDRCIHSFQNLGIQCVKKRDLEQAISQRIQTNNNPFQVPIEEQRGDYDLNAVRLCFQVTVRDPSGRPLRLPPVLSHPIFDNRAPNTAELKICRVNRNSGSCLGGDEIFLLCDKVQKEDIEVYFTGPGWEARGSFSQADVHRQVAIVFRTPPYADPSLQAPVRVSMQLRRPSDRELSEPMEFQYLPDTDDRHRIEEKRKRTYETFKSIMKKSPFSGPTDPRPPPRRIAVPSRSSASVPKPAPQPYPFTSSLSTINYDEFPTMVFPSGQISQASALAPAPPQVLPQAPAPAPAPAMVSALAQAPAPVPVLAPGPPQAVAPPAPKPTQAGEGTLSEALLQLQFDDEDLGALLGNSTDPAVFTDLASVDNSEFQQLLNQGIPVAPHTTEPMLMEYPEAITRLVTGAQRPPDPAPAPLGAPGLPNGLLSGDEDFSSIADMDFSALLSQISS

| pIC50 (NF-κB p65; [3]) | SMILES | pEC50 (IL-6) | pEC50 [1] | pEC50 [2] | pIC50 (NF-κB p65) |
| --- | --- | --- | --- | --- | --- |
| 5.14 | O=C(Nc1ccccc1)OC1C(NC(=O)c2ccccc2O)=CC(=O)C2OC21 (racemic) [Example 11, (±)-3-(2-hydroxybenzamido)-5-oxo-7-oxabicyclo[4.1.0]hept-3-en-2-yl phenylcarbamate] | 6.06 | 5.48 | 5.37 | – |
| 3.94 | CC(C)(C)CC(=O)Oc1ccccc1C(=O)NC1=CC(=O)C2OC2C1OC(=O)CC(C)(C)C (racemic) [Example 9, (±)-2-(2-(3,3-dimethylbutanoyloxy)-5-oxo-7-oxabicyclo[4.1.0]hept-3-en-3-ylcarbamoyl)phenyl 3,3-dimethylbutanoate] | 5.85 | 4.82 | 4.80 | – |
| – | CCOP(=O)(OCC)Oc1ccccc1C(=O)NC1=CC(=O)C2OC2C1O (racemic) [Example 10, (±)-diethyl 2-(2-hydroxy-5-oxo-7-oxabicyclo[4.1.0]hept-3-en-3-ylcarbamoyl)phenyl phosphate] | 5.22 | 4.62 | 4.89 | 4.23 |

| SMILES | pIC50 (NF-κB p65; [3]) | pEC50 (IL-6) | pEC50 [1] | pEC50 [2] | pIC50 (NF-κB p65) |
| --- | --- | --- | --- | --- | --- |
| O=C(NC1=CC(=O)C2OC2C1O)c1ccccc1OP(=O)(OCc1ccccc1)OCc1ccccc1 (racemic) [Example 12, (±)-dibenzyl 2-(2-hydroxy-5-oxo-7-oxabicyclo[4.1.0]hept-3-en-3-ylcarbamoyl)phenyl phosphate] | < 3.49 | < 4.59 | < 4.59 | < 4.59 | – |
